PubChem BioAssay AID2305 (GlaxoSmithKline (GSK), 2010)
Values joined by “and” are separate entries in the source; they are usually repeats but may differ in a detail not shown here. Equal entries are not always repeated.

tested on: P. falciparum 3D7 growth, pLDH absorbance; test: P. falciparum 3D7 growth inhibition, dose response, strain 3D7 (AID 2305)

SMILES	IC50
Cc1[nH]c(C)c(-c2ccc(Br)cc2)c(=O)c1Br	640 nM
CCN(CC)CCN(Cc1ccc(-c2ccc(C#N)cc2)cc1)C(=O)Cn1c(CCc2cccc(F)c2F)nc(=O)c2ccccc21	10 nM
CC(C)(C)c1ccc(CN2CCC(CNC(=O)c3cc(-c4ccccc4Cl)cs3)C2)cc1 (configuration not stated)	860 nM
COc1ccc2nccc([C@@H](O)CN3CCC(NC(=O)Cc4ccc(Br)c5ccccc45)CC3)c2c1	820 nM
Cc1nc2c(Nc3nc(-c4ccncc4)cs3)ncnc2n1-c1ccccc1Cl	180 nM
CN(C)c1ccc(-c2csc(C(=O)NCC3CCN(CC4CCCCC4)C3)c2)cc1 (configuration not stated)	1140 nM
CCCCCCCCc1c(C)[nH]c(C)c(Cl)c1=O	230 nM
Cc1cc(OCC2CCN(c3ccc(C(=O)NC4CC4)cn3)CC2)ccc1F	870 nM
CCOc1ccc(Cc2c(C)nc3nc(N)nc(N)c3c2C)cc1	1060 nM
CSc1ccc2ccccc2c1CCNCCCCNCCc1c(SC)ccc2ccccc12	410 nM
Cc1cccc2[nH]c(-c3ccc(-c4cccc(CNCC5CCCO5)c4)cc3)nc12 (configuration not stated)	700 nM
C[C@H](NC(=O)[C@H](Cc1ccccc1)NC(=O)OC(C)(C)C)C(=O)N[C@@H](CC1CCCCC1)C(O)CN (some centres not stated)	730 nM
O=C(Nc1cccc(OC2CCN(Cc3ccccc3)CC2)c1)c1ccc([N+](=O)[O-])cc1	660 nM
CCn1c(Cc2ccccc2)nnc1SCC(=O)N1c2ccccc2Sc2ccccc21	590 nM
O=C(Nc1ccc(Cn2ncc(N3CCCNCC3)c(Cl)c2=O)cc1)Nc1cccc(C(F)(F)F)c1	640 nM
CCCCCCc1cc(Oc2c(I)cc(C[C@H](N)C(=O)O)cc2I)ccc1O	910 nM
COc1ccc2nccc([C@@H](O)CN3CCC(NC(=O)C(c4cc5ccccc5o4)N4CCN(c5ccccc5OC)CC4)CC3)c2c1 (some centres not stated)	310 nM
CC1(C)Cc2c(oc3ncn(CCn4cnc5oc6c(c5c4=N)CC(C)(C)SC6)c(=N)c23)CS1	720 nM
COc1ccc2nccc([C@@H](O)CN3CCC(NC(=O)c4ccc(Oc5ccccc5)cc4)CC3)c2c1	1380 nM
Cc1cccc2[nH]c(-c3cccc(-c4cccc(NC(=O)c5csnn5)c4)c3)nc12	300 nM
COc1cc(NC(=O)/C=C/c2cc(F)cc(F)c2F)cc(OCCN2CCCCC2)c1	150 nM
Oc1ccc2[nH]c(-c3cccs3)nc2c1CN1CCC(O)(c2ccccc2)CC1	780 nM
CC(C)(CN)c1nc(-c2ccc(Cl)c(O)c2)c(-c2ccncc2)[nH]1	760 nM
O=C(NCCCCN1CCCC2c3ccc(O)cc3CCC21)c1ccc(-c2ccccc2)cc1 (configuration not stated)	730 nM and 940 nM
O=C(NC1CCC(CN2CCC(c3c[nH]c4ccccc34)CC2)CC1)[C@H]1Cc2ccccc2CN1 (some centres not stated)	950 nM

SMILES	IC50
O=C(/C=C/c1ccccc1Cl)NC1CCC(CN2[C@@H]3CC[C@H]2CC(c2c[nH]c4ccccc24)C3)CC1 (some centres not stated)	710 nM
Cc1cc(N(C)C)nc(Nc2ccc(NC(=O)c3cccc(F)c3)cc2)n1	1000 nM
CC[C@H]1CN2CC[C@H]1C[C@H]2[C@H](O)c1cc(-c2ccc(Cl)c(Cl)c2)nc2ccc(OC)cc12	120 nM
CN1CCN(c2ccnc3cc4c(cc23)N(C(=O)Nc2ccc3c(c2)CCCC3=O)CC4)CC1	620 nM
O=C(CSc1nc2ccccc2c(=O)n1CC1CCCO1)Nc1cc(C(F)(F)F)ccc1Cl (configuration not stated)	230 nM
Cc1cccc2[nH]c(-c3ccc(-c4ccc(CNCCCN5CCCC5=O)cc4)s3)nc12	750 nM
Cc1cnc(NCC2CCCCC2)nc1NCC(=O)Nc1ccccc1	710 nM
Cc1noc(C)c1-c1cccc(CNCc2cccc(-c3ccc(-c4nc5c(C)cccc5[nH]4)cc3)c2)c1	190 nM
O=C(NCC(CCCN1CCC(c2c[nH]c3ccccc23)CC1)c1ccccc1)Nc1ccc(Cl)c(Cl)c1 (configuration not stated)	790 nM
Cc1cccc2[nH]c(-c3cccc(-c4cccc(CN5CCC(CO)CC5)c4)c3)nc12	720 nM
N#CCc1ccc(Nc2nccc(Nc3ccc(Oc4ccccc4)cc3)n2)cc1	810 nM
c1ccn2c(-c3ncnc(NCc4ccc5c(c4)CCO5)n3)cnc2c1	1190 nM
CCCOc1c(CCNCCCCNCCc2ccc3ccccc3c2OCCC)ccc2ccccc12	480 nM
O=C(NCC1CCC(C(=O)NC2CCCc3ccccc32)CC1)c1ccc(O)c(-c2ccc(Cl)c(Cl)c2)c1 (configuration not stated)	1020 nM
COC(=O)c1ccc(CCC(C)NCC(O)c2cccc(Cl)c2)cc1 (configuration not stated)	670 nM
ON=C1CCc2cc(-c3nc(-c4ccc(OCCN5CCCCC5)cc4)[nH]c3-c3ccncc3)ccc21	800 nM
Cc1c2c(nn1-c1ccccc1)C(c1ccccc1)N(c1ccccc1)C2=O (configuration not stated)	150 nM
Cc1cccc(C(=O)Nc2ccnc(N3CCC(N(C)Cc4ccccc4)CC3)c2)c1	960 nM
CCc1cn(C)c2c(N3CCCC3=O)cc(C(=O)N[C@@H](Cc3ccccc3)[C@H](O)CNCc3cccc(OC)c3)cc12	780 nM
Cc1cccc2[nH]c(-c3ccc(-c4cccc(CNCCCNS(C)(=O)=O)c4)s3)nc12	1020 nM
CN(C)c1ccc(OCCCCCCOc2ccccc2)cc1	500 nM
COCc1ccccc1C(=O)NCCOc1cc(C)cc(C)c1	350 nM
c1ccc(-c2cc3cccc(-c4nc5ccncc5[nH]4)c3o2)cc1	110 nM
O=C(NCC1CCN(Cc2cccc(C(F)(F)F)c2)C1)c1cc(-c2cccc(Cl)c2)cs1 (configuration not stated)	800 nM
CC[C@H]1CN2CC[C@@H]1C[C@H]2[C@H](O)c1cc(N2CCC(O)(c3ccccc3)CC2)nc2ccc(OC)cc12	90 nM

SMILES	IC50
CN(C)c1ccc(C=C2SC(=O)NC2=Nc2ccccc2)cc1	30 nM
O=C(/C=C/c1ccc(Cl)c(Cl)c1)N1CCC(CN2CC[C@H](c3c[nH]c4ccccc34)[C@@H](O)C2)CC1	810 nM
COc1cc(N(Cc2ccccc2C)S(=O)(=O)Cc2ccccc2[N+](=O)[O-])c(OC)cc1Cl	1010 nM
Cc1cc(N[C@@H](CC(C)C)C(=O)NCCc2ccccc2)nc(NCCc2ccc(F)cc2)n1	770 nM
CCN(CC)CCCC(C)Nc1ccnc2ccc(OC)cc12 (configuration not stated)	820 nM
OC(CNCc1ccco1)Cn1c2ccc(Br)cc2c2cc(Br)ccc21 (configuration not stated)	1070 nM
Nc1nc(N)c2cc(Cc3ccc([N+](=O)[O-])cc3)cnc2n1	940 nM
Cc1ccc(NC(=O)C(C)Sc2n[nH]c(-c3ccccc3Br)n2)cc1 (configuration not stated)	1090 nM
CC(=O)c1cc(N2CCOCC2)ccc1N	910 nM
O=[N+]([O-])c1cccc(CNC2CCN(Cc3ccc(C(F)(F)F)cc3)CC2)c1	740 nM
CC(C)N1CCC(N(Cc2ccc(-c3ccc(Cl)cc3)cc2)C(=O)Cn2c(CCc3cccc(F)c3F)nc(=O)c3ccccc32)CC1	940 nM
Clc1ccccc1/C=C/c1cncnc1Nc1ccc2nc(Cc3ccccc3)[nH]c2c1	920 nM
CCCCCCC(C)c1cc(O)c2c(c1)OC(C)(C)c1ccncc1-2 (configuration not stated)	800 nM
O=C(Nc1ccc(Br)c(C(F)(F)F)c1)c1cccc([N+](=O)[O-])c1	910 nM
O=C(Nc1ccc(F)cc1)c1nc2ccccc2nc1Cl	1230 nM
Cn1ccc2c3c(N)nc(N)nc3ccc21	900 nM
CC(C)(C)OC(=O)NCCc1cccc(-c2c[nH]c3ncc(-c4cccc(NS(C)(=O)=O)c4)cc23)c1	680 nM
CCC[C@@H]([C@@H](CC1CCCCC1)C(=O)N[C@H](C(=O)Nc1nccs1)C(C)(C)SCCNC(=O)OCc1ccccn1)N(O)C=O	160 nM
CCNc1cc(C)nc(Nc2ccc(NC(=O)Cc3ccc(OC)cc3)cc2)n1	1380 nM
O=C(C=Cc1cn(-c2ccccc2)nc1-c1cccs1)N1CCN(c2ccncc2)CC1	720 nM
C=CCC1OC(=O)c2cc(OC)cc(OC)c21 (configuration not stated)	340 nM
CC(Cc1ccc(OCCOc2ccccc2)cc1)NCC(O)c1cccc(C(F)(F)F)c1 (configuration not stated)	970 nM
Cc1cccc2[nH]c(-c3ccc(-c4cccc(CN5CCCCC5)c4)s3)nc12	470 nM
N#Cc1ccc(N[C@@H](CC2CCCCC2)C(=O)N[C@@H]2CCCc3ccccc32)c2ccccc12	730 nM
CCCc1cc(OC)c(CC2c3cc(O)c(Cl)cc3CCN2C)cc1OC (configuration not stated)	570 nM

SMILES	IC50
COc1ccc(NC(=O)c2ccc(-c3nc(-c4cccc(C(F)(F)F)c4)cs3)cc2)cc1N1CCN(C)CC1	820 nM
O=C(Cc1ccccc1)NC(c1ccc(Cl)cc1)c1ccc2cccnc2c1O (configuration not stated)	860 nM
O=C(/C=C/c1c[nH]c2ccccc12)NCCCCCN1CCC(c2c[nH]c3ccccc23)CC1	930 nM
N#Cc1cccc(NC(=O)NC2CCN(CCCCCNC(=O)/C=C/c3ccc(Cl)c(Cl)c3)CC2)c1	710 nM
COc1ccc(CCN(C)CCOc2ccc(NC(=O)c3cccc4cc5ccccc5nc34)cc2)cc1OC	680 nM
CS(=O)(=O)NCCCNCc1cccc(-c2cccc(-c3nc4ccc(C(F)(F)F)cc4[nH]3)c2)c1	470 nM
CCOC(=O)c1cccc(NC(=O)Nc2cccc(-c3ncc(OCCCN)c4c3nc(-c3nonc3N)n4CC)c2)c1	890 nM
NC1CCCN(Cc2cccc(-c3ccc(-c4nc5ccccc5[nH]4)s3)c2)C1 (configuration not stated)	580 nM
CCCc1c(C(=O)NC2CCC(CN3CCC(c4c[nH]c5ccccc45)CC3)CC2)cnn1-c1c(Cl)cc(Cl)cc1Cl (configuration not stated)	820 nM
CN(C)c1ccc(NC(=O)Nc2ccnc3ccc(Br)cc23)cc1	870 nM
Cc1nnsc1C(=O)Nc1cccc(-c2ccc(-c3nc4ccc(C(F)(F)F)cc4[nH]3)cc2)c1	310 nM
COc1ccc(CNC2CCN(C)CC2)cc1-c1ccc(S(=O)(=O)NCc2cccnc2)s1	840 nM
CC[C@H]1CN(CCCn2c3ccccc3c3ccccc32)[C@@H](CC)CN1	1080 nM
Cc1ccc(NC(=O)NC2CCN(CCCCCNC(=O)/C=C/c3ccc(Cl)c(Cl)c3)CC2)cc1	690 nM
Fc1ccc([C@H]2N=C(SCCSC3=N[C@H](c4ccc(F)cc4)[C@H](c4ccc(F)cc4)N3)N[C@H]2c2ccc(F)cc2)cc1	910 nM
O=C(Nc1ccccc1)Nc1cccc(-c2nn3c(OCCN4CCCC4)cccc3c2-c2ccncc2)c1	400 nM
O=C(/C=C/c1ccc(Cl)c(Cl)c1)NCCCCCN1CCCC(CNC(=O)Nc2ccc(C(F)(F)F)cc2)C1 (configuration not stated)	670 nM
N#Cc1cccc(C(=O)Nc2cccc(-c3ccc(CN4CCC(O)CC4)cc3)c2)c1	1300 nM
COc1cc(OC)c(NC(=O)C2c3ccccc3C(=O)N(CC(C)C)C2c2cccs2)cc1Cl (configuration not stated)	50 nM
Cc1cccc2[nH]c(-c3cccc(-c4cccc(NC(=O)c5ccoc5)c4)c3)nc12	220 nM
O=C(Nc1ccccc1C(F)(F)F)NC1CCC(CN2CCC(c3c[nH]c4ccccc34)CC2)CC1 (configuration not stated)	950 nM and 780 nM
CCN(CC)CCCC(C)Nc1c2ccccc2nc2c1ccc1ccccc12 (configuration not stated)	1090 nM
